Test system: 883617-216-R-J1-PDC complex spheroid viability
Test: Anticancer human tumor 883617-216-R-J1-PDC patient-derived bladder carcinoma cell line growth inhibition [POLQ]
Conditions: for IC50: curve of first compound; for viability, T/C: stronger effect = lower value; active means viability on the fitted dose curve at most 10% of control; inactive means the rest
Outline: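 Three-cell-type spheroids modelling solid tumor plus stroma served as the readout system; POL inhibitors were tested individually and in combination, concentration ranges set by clinical Cmax where known.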

[1] = second compound 0.0316 µM, first compound 0.0316 µM
[2] = second compound 0.0316 µM, first compound 0.1 µM
[3] = second compound 0.0316 µM, first compound 0.316 µM
[4] = second compound 0.0316 µM, first compound 1 µM
[5] = second compound 0.1 µM, first compound 0.0316 µM
[6] = second compound 0.1 µM, first compound 0.1 µM
[7] = second compound 0.1 µM, first compound 0.316 µM
[8] = second compound 0.1 µM, first compound 1 µM
[9] = second compound 0.316 µM, first compound 0.0316 µM
[10] = second compound 0.316 µM, first compound 0.1 µM
[11] = second compound 0.316 µM, first compound 0.316 µM
[12] = second compound 0.316 µM, first compound 1 µM
[13] = second compound 1 µM, first compound 0.0316 µM
[14] = second compound 1 µM, first compound 0.1 µM
[15] = second compound 1 µM, first compound 0.316 µM
[16] = second compound 1 µM, first compound 1 µM
[17] = second compound 3.16 µM, first compound 0.0316 µM
[18] = second compound 3.16 µM, first compound 0.1 µM
[19] = second compound 3.16 µM, first compound 0.316 µM
[20] = second compound 3.16 µM, first compound 1 µM
[21] = second compound 10 µM, first compound 0.0316 µM
[22] = second compound 10 µM, first compound 0.1 µM
[23] = second compound 10 µM, first compound 0.316 µM
[24] = second compound 10 µM, first compound 1 µM
[25] = second compound 0.0316 µM, first compound 0.00316 µM
[26] = second compound 0.0316 µM, first compound 0.01 µM
[27] = second compound 0.1 µM, first compound 0.00316 µM
[28] = second compound 0.1 µM, first compound 0.01 µM
[29] = second compound 0.316 µM, first compound 0.00316 µM
[30] = second compound 0.316 µM, first compound 0.01 µM
[31] = second compound 1 µM, first compound 0.00316 µM
[32] = second compound 1 µM, first compound 0.01 µM
[33] = second compound 3.16 µM, first compound 0.00316 µM
[34] = second compound 3.16 µM, first compound 0.01 µM
[35] = second compound 10 µM, first compound 0.00316 µM
[36] = second compound 10 µM, first compound 0.01 µM
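Further: spheroids exposed to compounds for seven days before readout.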
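Wherever viability, T/C is given: 100% = DMSO vehicle control viability.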

CNCc1ccc(-c2[nH]c3cc(F)cc4c3c2CCNC4=O)cc1 + COC1C(OC(N)=O)C(O)C(Oc2ccc3c(O)c(NC(=O)c4ccc(O)c(CC=C(C)C)c4)c(=O)oc3c2C)OC1(C)C
> 10000 nM: IC50 (second compound 0.0316 µM) | IC50 (second compound 0.1 µM) | IC50 (second compound 0.316 µM) | IC50 (second compound 1 µM) | IC50 (second compound 3.16 µM) | IC50 (second compound 10 µM)
inactive: viability, T/C [1] 109% | viability, T/C [2] 104% | viability, T/C [3] 101% | viability, T/C [4] 97.9% | viability, T/C (second compound 0.0316 µM, first compound 3.16 µM) 95.3% | viability, T/C (second compound 0.0316 µM, first compound 10 µM) 80.7% | viability, T/C [5] 107% | viability, T/C [6] 97.3% | viability, T/C [7] 107% | viability, T/C [8] 101% | viability, T/C (second compound 0.1 µM, first compound 3.16 µM) 104% | viability, T/C (second compound 0.1 µM, first compound 10 µM) 98.6% | viability, T/C [9] 116% | viability, T/C [10] 98.9% | viability, T/C [11] 104% | viability, T/C [12] 106% | viability, T/C (second compound 0.316 µM, first compound 3.16 µM) 103% | viability, T/C (second compound 0.316 µM, first compound 10 µM) 94% | viability, T/C [13] 104% | viability, T/C [14] 104% | viability, T/C [15] 103% | viability, T/C [16] 90.4% | viability, T/C (second compound 1 µM, first compound 3.16 µM) 98% | viability, T/C (second compound 1 µM, first compound 10 µM) 87.9% | viability, T/C [17] 103% | viability, T/C [18] 92.8% | viability, T/C [19] 102% | viability, T/C [20] 87.2% | viability, T/C (second compound 3.16 µM, first compound 3.16 µM) 107% | viability, T/C (second compound 3.16 µM, first compound 10 µM) 92.9% | viability, T/C [21] 110% | viability, T/C [22] 97.2% | viability, T/C [23] 95.4% | viability, T/C [24] 91.9% | viability, T/C (second compound 10 µM, first compound 3.16 µM) 94.7% | viability, T/C (second compound 10 µM, first compound 10 µM) 95.6%

COc1cccc(OCCCN)c1-c1cc(Nc2cnc(C#N)cn2)n[nH]1 + COC1C(OC(N)=O)C(O)C(Oc2ccc3c(O)c(NC(=O)c4ccc(O)c(CC=C(C)C)c4)c(=O)oc3c2C)OC1(C)C
58.9 nM: IC50 (second compound 0.316 µM)
21.5 nM: IC50 (second compound 3.16 µM)
36.5 nM: IC50 (second compound 10 µM)
33.2 nM: IC50 (second compound 0.1 µM)
24.4 nM: IC50 (second compound 1 µM)
38.9 nM: IC50 (second compound 0.0316 µM)
inactive: viability, T/C [25] 83.3% | viability, T/C [26] 73.8% | viability, T/C [1] 46.9% | viability, T/C [2] 42.4% | viability, T/C [3] 28.1% | viability, T/C [4] 23.4% | viability, T/C [27] 91% | viability, T/C [28] 76.8% | viability, T/C [5] 46.5% | viability, T/C [6] 40.4% | viability, T/C [7] 27.6% | viability, T/C [8] 27.1% | viability, T/C [29] 85.6% | viability, T/C [30] 67.3% | viability, T/C [9] 66.3% | viability, T/C [10] 37.6% | viability, T/C [11] 32.5% | viability, T/C [12] 30% | viability, T/C [31] 90.8% | viability, T/C [32] 69.9% | viability, T/C [13] 42.6% | viability, T/C [14] 35.4% | viability, T/C [15] 27.7% | viability, T/C [16] 27.2% | viability, T/C [33] 88.2% | viability, T/C [34] 62.2% | viability, T/C [17] 41.4% | viability, T/C [18] 37.5% | viability, T/C [19] 39.6% | viability, T/C [20] 27.4% | viability, T/C [35] 92.2% | viability, T/C [36] 75.2% | viability, T/C [21] 50.9% | viability, T/C [22] 36.2% | viability, T/C [23] 35% | viability, T/C [24] 25.7%

Cn1ncnc1[C@H]1c2n[nH]c(=O)c3cc(F)cc(c23)N[C@@H]1c1ccc(F)cc1 + COC1C(OC(N)=O)C(O)C(Oc2ccc3c(O)c(NC(=O)c4ccc(O)c(CC=C(C)C)c4)c(=O)oc3c2C)OC1(C)C
> 100 nM: IC50 (second compound 0.0316 µM) | IC50 (second compound 0.1 µM) | IC50 (second compound 0.316 µM) | IC50 (second compound 1 µM) | IC50 (second compound 3.16 µM) | IC50 (second compound 10 µM)
inactive: viability, T/C (second compound 0.0316 µM, first compound 0.000316 µM) 103% | viability, T/C (second compound 0.0316 µM, first compound 0.001 µM) 93.1% | viability, T/C [25] 95.5% | viability, T/C [26] 94.9% | viability, T/C [1] 72.8% | viability, T/C [2] 78.4% | viability, T/C (second compound 0.1 µM, first compound 0.000316 µM) 110% | viability, T/C (second compound 0.1 µM, first compound 0.001 µM) 95.9% | viability, T/C [27] 108% | viability, T/C [28] 80.2% | viability, T/C [5] 75.8% | viability, T/C [6] 69.3% | viability, T/C (second compound 0.316 µM, first compound 0.000316 µM) 108% | viability, T/C (second compound 0.316 µM, first compound 0.001 µM) 99% | viability, T/C [29] 89.9% | viability, T/C [30] 82.9% | viability, T/C [9] 67.5% | viability, T/C [10] 64% | viability, T/C (second compound 1 µM, first compound 0.000316 µM) 95.8% | viability, T/C (second compound 1 µM, first compound 0.001 µM) 104% | viability, T/C [31] 101% | viability, T/C [32] 80.5% | viability, T/C [13] 83.2% | viability, T/C [14] 76.9% | viability, T/C (second compound 3.16 µM, first compound 0.000316 µM) 99.4% | viability, T/C (second compound 3.16 µM, first compound 0.001 µM) 102% | viability, T/C [33] 101% | viability, T/C [34] 70.9% | viability, T/C [17] 82.5% | viability, T/C [18] 68% | viability, T/C (second compound 10 µM, first compound 0.000316 µM) 94.2% | viability, T/C (second compound 10 µM, first compound 0.001 µM) 97.9% | viability, T/C [35] 97.7% | viability, T/C [36] 71.6% | viability, T/C [21] 79.5% | viability, T/C [22] 70.8%

Source: PubChem BioAssay AID1963833 (Molecular Pharmacology Branch, DTP, NCI, 2024)
